Key:
[1] = system: S. typhimurium TA1535 (umu D,C SOS gene, luciferase expression); conditions: for Minimum detectable concentration, Method of Present Invention: Table 1, response two times that without test substance, 37° C., 2 hours, S9Mix where necessary; for minimum detectable concentration, fold lower than conventional colorimetric method: first embodiment (luc) vs conventional method
[2] = system: S. typhimurium TA1535/pSK1002 (umu D,C SOS gene, β-galactosidase expression); assay: Conventional colorimetric method (umu test, β-galactosidase activity), Comparative Example 3; conditions: Table 1; response two times that without test substance; 37° C., 2 hours; S9Mix where necessary
[3] = system: S. typhimurium TA1535/pSK1002 (umu D,C SOS gene, β-galactosidase expression); assay: Conventional colorimetric method (umu test, β-galactosidase activity), Comparative Example 4; conditions: Table 2; response two times that without test substance; 37° C., 2 hours; S9 Mix where necessary
[4] = system: S. typhimurium TA1535 (umu D,C SOS gene, luminescence genes of pUCD620); assay: Luminescence assay with genes for luciferase and the enzyme producing its substrate, Example 6; conditions: Table 2; response two times that without test substance; 30° C., 2 hours; S9 Mix where necessary
in vitro = conditions: s. typhimurium ta1535
[5] = Conventional colorimetric method (umu test, β-galactosidase activity), Comparative Example 3; conditions: s. typhimurium ta1535/psk1002

SMILES: O=[N+]([O-])c1ccc2ccc3cccc4ccc1c2c34 [1-NP, 1-nitropyrene]
- Minimum detectable concentration, Method of Present Invention [1]: 0.03 µg/mL
- minimum detectable concentration, fold lower than conventional colorimetric method [1]: about 10 times
- Minimum detectable concentration, Conventional Method [2]: 0.3 µg/mL
- Minimum detectable concentration, Conventional Method [3]: 0.3 µg/mL
- Minimum detectable concentration, Method of Present Invention [4]: 0.05 µg/mL

SMILES: Nc1ccc2cc3ccccc3cc2c1 [2-AA, 2-aminoanthracene]
- Minimum detectable concentration, Method of Present Invention [1]: 0.04 µg/mL
- Minimum detectable concentration, Conventional Method [2]: 0.1 µg/mL
- Minimum detectable concentration, Conventional Method [3]: 0.1 µg/mL
- Minimum detectable concentration, Method of Present Invention [4]: 0.02 µg/mL

SMILES: NC(=O)C(=Cc1ccc([N+](=O)[O-])o1)c1ccco1 [AF-2, 2-(2-furyl)-3-(5-nitro-2-furyl)-acrylamide]
- Minimum detectable concentration, Method of Present Invention [1]: 0.0005 µg/mL
- dynamic range (highest value of the ratio), expansion relative to conventional colorimetric method ([1]; first embodiment vs conventional colorimetric method): about 3 times
- maximal fold induction (in vitro): ~15
- maximal fold induction [5]: ~5
- Minimum detectable concentration, Conventional Method [2]: 0.003 µg/mL
- Minimum detectable concentration, Conventional Method [3]: 0.003 µg/mL
- Minimum detectable concentration, Method of Present Invention [4]: 0.0005 µg/mL

SMILES: O=[N+]([O-])c1cc[n+]([O-])c2ccccc12 [4NQO, 4-nitroquinoline 1-oxide]
- Minimum detectable concentration, Method of Present Invention [1]: 0.01 µg/mL
- Minimum detectable concentration, Conventional Method [2]: 0.04 µg/mL
- Minimum detectable concentration, Conventional Method [3]: 0.04 µg/mL
- Minimum detectable concentration, Method of Present Invention [4]: 0.008 µg/mL

SMILES: c1ccc2c(c1)cc1ccc3cccc4ccc2c1c34 [Bap, benzo[a]pyrene]
- Minimum detectable concentration, Method of Present Invention [1]: 0.1 µg/mL
- minimum detectable concentration, fold lower than conventional colorimetric method [1]: about 10 times
- Minimum detectable concentration, Conventional Method [2]: 1 µg/mL
- Minimum detectable concentration, Conventional Method [3]: 1 µg/mL
- Minimum detectable concentration, Method of Present Invention [4]: 0.04 µg/mL

Reference: patent US5702883A, “Methods for detection of mutagens using luminescence gene” (Kabushiki Kaisha Toyota Chuo Kenkyusho, priority 1993, dated 1997)
